In US4151361A, “Prostaglandin derivatives” (American Home Products Corporation, priority 1978, dated 1979):

Tested on: bronchoconstricting effects of a standard dose of acetylcholine
Test: bronchodilation upon aerosol inhalation (inhibition of acetylcholine bronchoconstriction), method of Rosenthale et al.
Format: in vivo
Settings: guinea pig, i.v. acetylcholine dose producing ca. 30% bronchoconstriction
Excerpt: In using the compounds of the invention to produce bronchodilating effects in warm-blooded animals, they may be administered in a variety of dosage forms: oral, injectable, and aerosol inhalation. Aerosol inhalation is a preferred method because of its rapid onset of action, great potency, and specificity of action. The particular dosage to obtain the bronchodilating effect will vary with the particular compound employed, the particular animal involved, and the degree of bronchodilation desired. In the guinea pig, by aerosol inhalation, the dose to produce bronchodilation is from about 0.15 micrograms to about 25 micrograms, and preferably from about 0.15 to about 15 micrograms. The bronchodilation produced upon aerosol inhalation can be observed by the method of Rosenthale et al., J. Pharmacol. Exp. Ther., 178, 541 (1971). Using this procedure the following results were obtained:
*The dose (i.v.) of acetylcholine which produces a ca. 30%

Row | SMILES | Percent Inhibition of the Bronchoconstricting effects of a standard dose of acetylcholine (dose 1.5 μg) [%] | Percent Inhibition of the Bronchoconstricting effects of a standard dose of acetylcholine (dose 15 μg) [%] | Percent Inhibition of the Bronchoconstricting effects of a standard dose of acetylcholine (dose .015 μg) [%] | Percent Inhibition of the Bronchoconstricting effects of a standard dose of acetylcholine (dose .15 μg) [%] | Percent Inhibition of the Bronchoconstricting effects of a standard dose of acetylcholine (dose .0015 μg) [%]
1 | C#CC(O)(CCCCC)CC[C@H]1[C@H](O)CC(=O)[C@@H]1C/C=C\CCCC(=O)O (stereo partly shown) [13,14-dihydro-15-ethynyl-PGE2, 13,14-Dihydro-15-Ethynyl-PGE2] | 100 | 91 | 94 | 96 | 
2 | C#CC(O)(CCCCC)CC[C@@H]1[C@@H](C/C=C\CCCC(=O)O)[C@H](O)C[C@H]1O (stereo partly drawn) [13,14-dihydro-15-ethynyl-PGF2β, 13,14-Dihydro-15-Ethynyl PGF2β] | 44 | 63 |  |  | 
3 | C#CC(O)(CCCCC)CC[C@H]1[C@H](O)CC(=O)[C@@H]1CCCCCCC(=O)O (stereo partly shown) [tetrahydro-15-ethynyl-PGE2, 15-Ethynyl-Tetrahydro-PGE2] | 100 |  | 86 | 99 | 51
4 | C#C[C@](O)(CCCCC)CC[C@H]1[C@H](O)CC(=O)[C@@H]1CCCCCCC(=O)O [tetrahydro-15β-ethynyl-PGE2, 15β-ethynyl-tetrahydro-PGE2] |  |  | 95 | 98 | 58
